Test [1] deals with VE-cadherin. Kind of test: Surface plasmon resonance binding of peptides to immobilized VE-cadherin fragment. The following applies: for affinity to VE-cadherin (in words): comparison between peptides; for binding to VE-cadherin: added at 400 nM. On the procedure:
To test binding activities of fibrin beta chain derived peptides of the invention to VE-caherin, surface plasmon resonance (SPR) methods are, for example, used. SPR experiments are performed using, for example, a BIAcore 3000 biosensor (BIAcore AB, Uppsala, Sweden), which can be used to measure the association/dissociation of peptides or proteins in real-time (see, for example, Karlsson, R., and Falt, A. J. Immunol. Methods (1997) 200, 121-133; Hall, D. Anal. Biochem. (2001) 288, 109-125; see also Gorlatov et al. Biochemistry (2002) 41, 4107-4116 for other VE-cadherin binding assays including, for example, SPR IAsys Analysis based assays and ELISA based assays). An exemplary method is described in the following passage. VE-cadherin fragment is covalently coupled via epsilon-amino groups to the activated surface of a CM5 biosensor chip by the procedure described by, for example, Karlsson, R., and Falt, A. (J. Immunol. Methods (1997) 200, 121-133; see also Gorlatov et al. Biochemistry (2002) 41, 4107-4116). Briefly, the carboxyl groups on the sensor surface were activated with an injection of a solution containing, for example, 0.2 M N-ethyl-N-(3-diethylamino-propyl) carbodiimide and 0.05 M N-hydroxysuccinimide. VE-cadherin to be coupled is prepared in 10 mM sodium-acetate buffer, pH 4.0, containing 1 mM CaCl2, and injected onto the activated CM5 surface at 5 mL/min followed by incubation for 7 min after which the surface was deactivated by passing 1 M ethanolamine. Activation time, ligand concentration, and contact time are adjusted to achieve a coupling density of 5-6 ng/mm2. Binding experiments are performed, for example, in 10 mM Hepes buffer, pH 7.4, containing 200 mM NaCl, 1 mM CaCl2, 0.02% NaN3, and 0.05% n-octyl beta-D-glucopyranoside (binding buffer). Samples comprising, for example, fibrin beta chain derived peptides β15-42, β15-64, and (β15-66)2, at different concentrations are injected in duplicate in at least three separate experiments and the association/dissociation between the immobilized and the added peptides is monitored as the change in the SPR response. To regenerate the chip, complete dissociation of the complex was achieved by adding, for example, 20 mM Tris buffer, pH 7.5, containing 0.5 M urea, 0.5 M NaCl, and 0.5% Triton X-100, for 1 min following reequilibration with binding buffer. Experimental data are analyzed using, for example, BIAevaluation 3.0 software supplied with the instrument. Briefly, kinetic constants, kass and kdis, are estimated by global analysis of the association/dissociation curves to the 1:1 Langmurian interaction model (Morton, T. A., and Myszka, D. G. Methods Enzymol. (1998) 295, 268-294). The dissociation equilibrium constant (Kd) is calculated as Kd=kdiss/kass. It is also noted that other methods known to one of ordinary skill in the art can be used to determine binding activities of fibrin beta chain derived peptides of the invention to VE-caherin including, for example, ELISA-based methods (see, for example, Gorlatov et al. Biochemistry (2002) 41, 4107-4116).
On the technique in general: In SPR one partner is held on a chip, and binding of the other changes the refractive index at the surface.

For the next test, the system named is ischemic myocardium. Nature of the test: Coronary artery ligation mouse model of myocardial infarction (ischemia and reperfusion). The following applies: MI mice, i.v., about 16 nanomoles. It counts as in vivo. The text has this:
To confirm the ability of (β15-66)2, (β15-44)2, (β15-40)2, (β15-35)2, and β15-42 to protect (with the former peptides showing increased protection over β15-42) against injury following ischemia and reperfusion an animal model of myocardial infarction (MI) is employed. The effect of the β15-42, (β15-66)2, (β15-44)2, (β15-40)2, and (β15-35)2 (and other fibrin beta chain derived peptides of the invention) on the protection and infiltration and migration of leukocytes into the ischemic myocardium is determined by, for example, using a coronary artery ligation mouse model of MI. To determine the efficacy of these peptides to protect against injury and inhibit leukocyte infiltration and migration into the myocardium following ischemia a fibrin beta chain derived peptide is administered (for example, at a dose of about 16 nanomoles, which can be adjusted accordingly to determine efficacy) i.v. into 8-12 week-old C57BL6 mice (20 to 25 g), for example, prior to left anterior descending (LAD) coronary artery ligation, upon reperfusion, or after reperfusion. Mice injected with PBS are used as controls. […] Administration can be adjusted based on, for example, pharmacodynamic and pharmacokinetic properties.
The study may comprise at least 7 different groups: sham-operated control (group #1), MI mice with no treatment (group #2), and MI mice treated with β15-42 (group #3), (β15-66)2 (group #4), (β15-44)2 (group #5), (β15-40)2 (group #6), and (β15-35)2 (group #7). To ensure objectivity, these experiments are conducted in a double-blind and placebo-controlled manner. Thus, β15-42, (β15-66)2, (β15-44)2, (β15-40)2, (β15-35)2, and PBS are assigned randomly to a reference number, which is blinded to the personnel involved in conducting the surgery and performing post-surgery analysis. […] Leukocyte infiltration into the ischemic myocardium is determined by H&E staining and cardiomyocyte apoptosis is determined by TdT-mediated dUTP Nick-End Labeling (TUNEL) staining. […]

In test [2] the test system is leukocyte (neutrophil) migration into the peritoneum. Kind of test: Thioglycollate-induced in vivo peritonitis model of leukocyte migration. Set-up: species or system mouse. As to conditions: for inhibition of leukocyte infiltration and migration compared to β15-42: (β15-66)2 8.6 mg/kg, (β15-44)2 5.1 mg/kg; for leukocyte migration / number of leukocytes accumulating in the peritoneum: peptide i.v. prior to i.p. thioglycollate, peritoneal lavage at 4 h, versus PBS control. On the procedure: We compared their anti-inflammatory effects in an in vivo peritonitis model, a well established mouse model for leukocyte migration into sites of acute inflammation. In this model, leukocyte migration from the circulation into the peritoneum was stimulated by intraperitoneal (i.p.) injection of thioglycollate, and leukocyte (neutrophil) accumulation was evaluated after 4 hours by measuring the cell number in the peritoneal lavage.
Leukocyte (e.g., neutrophil) infiltration is a hallmark of injury associated with ischemia and reperfusion, as well as a number of other inflammatory conditions. Therefore, peptides of the invention are tested to determine the ability to decrease leukocyte infiltration in vivo. The ability to inhibit leukocyte infiltration was tested in an in vivo model of peritonitis, which is a well established mouse model for leukocyte infiltration and migration into sites of inflammation. The protocol for this animal model is described as below. Experiments were performed consistent with accepted practice (see, for example, Bosse et al. 1994. Eur. J. Immunol. 24: 3019; Borges et al. 1997. Blood 90: 1934; US Patent Application Publication No. 20030105020). To induce peritonitis, thioglycollate was administered intraperitoneally (i.p.) to mice. For inhibition studies, mice were injected intravenously (i.v.) with either β15-42, (β15-44)2, or (β15-66)2 prior to i.p. injection of thioglycollate (FIG. 4). Control mice were treated with the same volume of PBS. All reagents are kept endotoxin-free. At 4 h after injection of thioglycollate, mice were sacrificed and the peritoneal lavage was generated by, for example, injecting 10 ml PBS, massaging the peritoneal wall, and removing the fluid. Following the peritoneal lavage, leukocytes were quantified (e.g., neutrophil quantification determined using a hemocytometer).

Test [3] addresses T1, VE-cadherin (Homo sapiens, UniProt P33151).
T1 sequence (P33151 48-784): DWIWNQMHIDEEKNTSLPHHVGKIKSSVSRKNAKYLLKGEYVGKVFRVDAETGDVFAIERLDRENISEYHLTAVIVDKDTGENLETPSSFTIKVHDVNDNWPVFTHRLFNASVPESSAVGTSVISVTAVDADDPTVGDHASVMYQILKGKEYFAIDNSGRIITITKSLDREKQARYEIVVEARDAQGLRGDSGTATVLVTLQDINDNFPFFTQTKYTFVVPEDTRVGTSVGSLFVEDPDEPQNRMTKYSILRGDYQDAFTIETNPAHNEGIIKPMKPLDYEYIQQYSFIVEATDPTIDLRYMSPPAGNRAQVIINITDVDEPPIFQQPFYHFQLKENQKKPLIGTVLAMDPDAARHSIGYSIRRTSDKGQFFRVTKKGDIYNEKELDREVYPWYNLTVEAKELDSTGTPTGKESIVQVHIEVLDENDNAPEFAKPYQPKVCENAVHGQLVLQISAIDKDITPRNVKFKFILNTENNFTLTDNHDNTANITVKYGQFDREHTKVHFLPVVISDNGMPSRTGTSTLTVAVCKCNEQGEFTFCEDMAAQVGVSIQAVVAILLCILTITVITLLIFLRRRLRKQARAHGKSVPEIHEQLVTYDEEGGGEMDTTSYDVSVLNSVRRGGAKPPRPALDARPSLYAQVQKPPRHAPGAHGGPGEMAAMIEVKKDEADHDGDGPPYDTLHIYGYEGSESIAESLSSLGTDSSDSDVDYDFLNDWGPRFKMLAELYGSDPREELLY
The following applies: cited from earlier work.

For test [4], the system named is myocardial ischemia-reperfusion injury. As to conditions: acute or chronic rat models; cited from earlier work.

Entries after “also recorded” stand apart in the source; their conditions may differ. No end group written: not given here.

We go through six substances from patent publication US8722623B2, “Compositions and methods utilizing fibrin beta chain fragments” (University of Maryland, Baltimore, priority 2007, dated 2014).

On to “(β15-35)2: dimer; monomer GHRPLDKKREEAPSLRPAYCG (SEQ ID NO:7) (GHRPLDKKREEAPSLRPAYCG; also: disulfide-linked homodimer)”, for which, in the test with VE-cadherin [1] (FIG. 3), the “affinity to VE-cadherin compared to both (β15-44)2 and (β15-40)2” value was “unexpectedly higher degree of affinity”. The “affinity to VE-cadherin (in words)” value in the test with VE-cadherin [1] is “even higher affinity”. Moreover, in the test with ischemic myocardium, the “efficacy compared to β15-42” value is on record as “increased efficacy”. For the same substance, the “inhibition of leukocyte infiltration and migration compared to β15-42” value (“inhibition … compared to β15-42” below) in test [2] (peritonitis model, 4 h) was “even further inhibit leukocyte infiltration and migration”.
As to “(β15-40)2: dimer; monomer GHRPLDKKREEAPSLRPAPPPISYCG (SEQ ID NO:6) (GHRPLDKKREEAPSLRPAPPPISYCG; also: disulfide-linked homodimer)”, the “affinity to VE-cadherin (in words)” value with VE-cadherin [1] is listed as “even higher affinity”. In addition, the “efficacy compared to β15-42” value in the test on ischemic myocardium was “increased efficacy”. Further, the “inhibition … compared to β15-42” value in test [2] (peritonitis model, 4 h) was “even further inhibit leukocyte infiltration and migration”.
Turning to “(β15-44)2: synthetic dimer; monomer GHRPLDKKREEAPSLRPAPPPISGGGYRCG (SEQ ID NO:5), Cys43-Cys43 disulfide bond (GHRPLDKKREEAPSLRPAPPPISGGGYRCG; also: Cys43-Cys43 disulfide homodimer)”, the “affinity to VE-cadherin (in words)” value with VE-cadherin [1] is on record as “comparable to that of (β15-66)2; also recorded: even higher affinity”. For the same substance, the “efficacy compared to β15-42” value with ischemic myocardium is given as “increased efficacy”. For the same substance, the “leukocyte migration / number of leukocytes accumulating in the peritoneum” value (shortened to “leukocyte migration / number”) in test [2] is “inhibits leukocyte migration”. For the same substance, in test [2] (peritonitis model, 4 h), the “number of leukocytes compared to β15-44” value is listed as “decrease in the number of leukocytes”; the “inhibition … compared to β15-42” value is “almost twice as much”. Also, the “inhibitory effect on leukocyte transmigration compared to (β15-66)2” value in test [2] (peritonitis model, FIG. 4) is recorded as “superior”.
Take “thymosin β4 (SDKPDMAEIEKFDKSKLKKTETQEKNPLPSKETIEQEKQAGES; Thymosin beta-4; UniProt P62328 2-44, looked up) [TB4]”: the “leukocyte migration / number” value in test [2] was “inhibits leukocyte migration”.
Consider “β15-42: peptide which includes amino acid residues 15-42 of the fibrin β chain (GHRPLDKKREEAPSLRPAPPPISGGGYR) [reference compound]”, for which, in the test on VE-cadherin [1], the “binding to VE-cadherin” value is recorded as “very little binding” and the “affinity to VE-cadherin (in words)” value is reported as “weak”. In the test with VE-cadherin [3], the “competition with fibrin for the interaction with VE-cadherin” value is reported as “competes with fibrin for the interaction with VE-cadherin”. In addition, in test [4], the “myocardial inflammation and infarct size” value is recorded as “substantially reduced”. Also, in test [2], the “leukocyte migration / number” value is recorded as “significantly lower; also recorded: inhibits leukocyte migration”.
In the case of “β15-64: monomeric fibrin β chain residues 15-64 (fibrin βN-domain) [reference compound]”, the “binding to VE-cadherin” value with VE-cadherin [1] is listed as “very little binding”.
